Results reported in the supplement of paper PMC11061612.

Legend:
Assay in all cases: combination Emax (second highest fraction inhibited in the dose matrix, 72 h); higher = more inhibition; extreme values may be limits of the assay
AM-38 (Glioblastoma) = system: AM-38 (Glioblastoma)
Method in brief: (§1)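 Bliss excess equals the observed combination effect minus the expected value EA + EB − EA·EB, where EA and EB are the effects of each agent alone. Combination Emax is the second-highest inhibition within the matrix. Inhibition was scaled from CellTiter-Glo 2.0 luminescence, with 0 set by vehicle wells and 1 by blank wells, after 72 hours of two-drug dosing of cells plated in 1536-well plates.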

[1] = system: CL-11 (Colorectal Carcinoma)
Method in brief: as §1

[2] = system: COR-L88 (Small Cell Lung Carcinoma)
Method in brief: as §1

IST-MEL1 (Melanoma) = system: IST-MEL1 (Melanoma)
Method in brief: as §1

KALS-1 (Glioblastoma) = system: KALS-1 (Glioblastoma)
Method in brief: as §1

[3] = system: LS-1034 (Colorectal Carcinoma)
Method in brief: as §1

[4] = system: MM1S (Plasma Cell Myeloma)
Method in brief: as §1

[5] = system: MS-1 (Small Cell Lung Carcinoma)
Method in brief: as §1

[6] = system: NCI-H3118 (Head and Neck Carcinoma)
Method in brief: as §1

[7] = system: OAW-28 (Ovarian Carcinoma)
Method in brief: as §1

[8] = system: P32-ISH (Burkitt's Lymphoma)
Method in brief: as §1

[9] = system: PL4 (Pancreatic Carcinoma)
Method in brief: as §1

[10] = system: RCC-JW (Kidney Carcinoma)
Method in brief: as §1

[11] = system: Raji (Burkitt's Lymphoma)
Method in brief: as §1

[12] = system: SNU-C2B (Colorectal Carcinoma)
Method in brief: as §1

[13] = system: SUP-M2 (T-Cell Non-Hodgkin's Lymphoma)
Method in brief: as §1

[14] = system: SiHa (Cervical Carcinoma)
Method in brief: as §1

T47D (Breast Carcinoma) = system: T47D (Breast Carcinoma)
Method in brief: as §1

[15] = system: TUR (Acute Myeloid Leukemia)
Method in brief: as §1

UACC-257 (Melanoma) = system: UACC-257 (Melanoma)
Method in brief: as §1

| SMILES | combination Emax (AM-38 (Glioblastoma)) | combination Emax [1] | combination Emax [2] | combination Emax (IST-MEL1 (Melanoma)) | combination Emax (KALS-1 (Glioblastoma)) | combination Emax [3] | combination Emax [4] | combination Emax [5] | combination Emax [6] | combination Emax [7] | combination Emax [8] | combination Emax [9] | combination Emax [10] | combination Emax [11] | combination Emax [12] | combination Emax [13] | combination Emax [14] | combination Emax (T47D (Breast Carcinoma)) | combination Emax [15] | combination Emax (UACC-257 (Melanoma)) |
| --- | --- | --- | --- | --- | --- | --- | --- | --- | --- | --- | --- | --- | --- | --- | --- | --- | --- | --- | --- | --- |
| Cc1nc(Nc2ncc(C(=O)Nc3c(C)cccc3Cl)s2)cc(N2CCN(CCO)CC2)n1 [Dasatinib] + CC(=O)Nc1cccc(-n2c(=O)n(C3CC3)c(=O)c3c(Nc4ccc(I)cc4F)n(C)c(=O)c(C)c32)c1 [Trametinib] (first compound max 2 µM, 7x7, partner max 1 µM) | 0.713 | 0.961 | 0.2 | 0.793 | 0.917 | 0.861 | 0.227 | 0.125 | 0.811 | 0.524 | 0.411 | 0.955 | 0.859 | 0.134 | 0.66 | 0.126 | 0.329 | 0.344 | 0.308 | 0.644 |
| COc1cccc2c1C(=O)c1c(O)c3c(c(O)c1C2=O)C[C@@](O)(C(=O)CO)C[C@@H]3O[C@H]1C[C@H](N)[C@H](O)[C@H](C)O1 [Doxorubicin] + Cc1cc2ncnn2cc1Nc1ncc2c(n1)n(C1CCOCC1)c(=O)n2C [AZD7648] (first compound max 1 µM, 7x7, partner max 10 µM) | 0.826 | 0.602 | 0.455 | 0.724 | 0.832 | 0.376 | 0.922 | 0.905 | 0.758 | 0.534 | 0.992 | 0.535 | 0.75 | 0.96 | 0.546 | 1 | 0.571 | 0.64 | 0.935 | 0.431 |
| COc1cc2ncnc(Nc3ccc(F)c(Cl)c3)c2cc1OCCCN1CCOCC1 [Gefitinib] + CC(C)n1c(=O)n(C)c2cnc3cc(F)c(-c4ccc(OCCCN5CCCCC5)nc4)cc3c21 [AZD1390] (first compound max 10 µM, 7x7, partner max 0.3 µM) | 0.123 | 0.0239 | 0.21 | 0.0683 | 0.127 | 0.117 | 0.217 | 0.273 | 0.518 | 0.215 | 0.333 | 0.125 | 0.226 | 0.162 | 0.246 | 0.116 | 0.0755 | 0.147 | 0.293 | 0.053 |
| CS(=O)(=O)CCNCc1ccc(-c2ccc3ncnc(Nc4ccc(OCc5cccc(F)c5)c(Cl)c4)c3c2)o1 [Lapatinib] + C[C@@H](Oc1cc(-c2cnn(C3CCNCC3)c2)cnc1N)c1c(Cl)ccc(F)c1Cl [Crizotinib] (first compound max 10 µM, 7x7, partner max 10 µM) | 0.91 | 0.928 | 0.57 | 0.811 | 0.801 | 0.946 | 0.962 | 0.941 | 0.928 | 0.75 | 1 | 0.884 | 0.976 | 0.76 | 0.753 | 1 | 0.252 | 0.525 | 0.59 | 0.947 |
| CC(=O)c1c(C)c2cnc(Nc3ccc(N4CCNCC4)cn3)nc2n(C2CCCC2)c1=O [Palbociclib] + CC1(C)CCC(CN2CCN(c3ccc(C(=O)NS(=O)(=O)c4ccc(NCC5CCOCC5)c([N+](=O)[O-])c4)c(Oc4cnc5[nH]ccc5c4)c3)CC2)=C(c2ccc(Cl)cc2)C1 [Venetoclax] (first compound max 10 µM, 7x7, partner max 1 µM) | 0.328 | 0.298 | 0.331 | 0.237 | 0.146 | 0.559 | 0.308 | 0.303 | 0.318 | 0.173 | 0.66 | 0.184 | 0.215 | 0.436 | 0.152 | 0.738 | 0.123 | 0.237 | 0.348 | 0.057 |
| CC(=O)c1c(C)c2cnc(Nc3ccc(N4CCNCC4)cn3)nc2n(C2CCCC2)c1=O [Palbociclib] + Cc1c2c(nn1C)CSCc1cc(n(C)n1)CSc1cc(c3ccccc3c1)OCCCc1c(C(=O)O)n(C)c3c-2c(Cl)ccc13 [AZD5991] (first compound max 10 µM, 7x7, partner max 1 µM) | 0.405 | 0.309 | 0.307 | 0.258 | 0.229 | 0.686 | 0.26 | 0.609 | 0.426 | 0.277 | 1 | 0.263 | 0.255 | 0.704 | 0.365 | 1 | 0.0939 | 0.413 | 0.621 | 0.21 |
| CC(=O)c1c(C)c2cnc(Nc3ccc(N4CCNCC4)cn3)nc2n(C2CCCC2)c1=O [Palbociclib] + Cn1cnc2c(F)c(Nc3ccc(Br)cc3Cl)c(C(=O)NOCCO)cc21 [Selumetinib] (first compound max 10 µM, 7x7, partner max 10 µM) | 0.568 | 0.864 | 0.223 | 0.401 | 0.432 | 0.817 | 0.253 | 0.416 | 0.603 | 0.344 | 0.699 | 0.523 | 0.239 | 0.453 | 0.303 | 0.88 | 0.16 | 0.265 | 0.379 | 0.647 |
| COc1cccc(OCCCN)c1-c1cc(Nc2cnc(C#N)cn2)n[nH]1 [Prexasertib] + C=CCn1c(=O)c2cnc(Nc3ccc(N4CCN(C)CC4)cc3)nc2n1-c1cccc(C(C)(C)O)n1 [AZD1775] (first compound max 1 µM, partner max 1 µM) | 0.857 | 0.834 | 0.853 | 0.812 | 0.901 | 0.835 | 0.963 | 1 | 0.906 | 0.569 | 1 | 0.852 | 0.703 | 0.977 | 0.676 | 1 | 0.487 | 0.704 | 1 | 0.48 |
| COc1cccc(OCCCN)c1-c1cc(Nc2cnc(C#N)cn2)n[nH]1 [Prexasertib] + CCc1c2c(nc3ccc(O)cc13)-c1cc3c(c(=O)n1C2)COC(=O)[C@]3(O)CC [SN-38] (first compound max 1 µM, 7x7, partner max 0.3 µM) | 0.891 | 0.849 | 0.866 | 0.889 | 0.951 | 0.897 | 1 | 0.987 | 0.872 | 1 | 1 | 0.877 | 0.637 | 0.983 | 0.658 | 1 | 0.578 | 0.784 | 1 | 0.295 |
| COc1cccc(OCCCN)c1-c1cc(Nc2cnc(C#N)cn2)n[nH]1 [Prexasertib] + CN(C)CCCOc1ccc(-c2ccc3ncc4c(c3c2)n(C2CCOCC2)c(=O)n4C)cn1 [AZD0156] (first compound max 1 µM, 7x7, partner max 1 µM) | 0.837 | 0.734 | 0.843 | 0.75 | 0.839 | 0.724 | 0.847 | 0.983 | 0.858 | 0.563 | 1 | 0.806 | 0.366 | 0.959 | 0.622 | 1 | 0.293 | 0.426 | 1 | 0.364 |
| COc1cccc(OCCCN)c1-c1cc(Nc2cnc(C#N)cn2)n[nH]1 [Prexasertib] + C[C@@H]1COCCN1C2=NC(=NC(=C2)C3(CC3)[S@](=N)(=O)C)C4=C5C=CNC5=NC=C4 [AZD6738] (first compound max 1 µM, 7x7, partner max 10 µM) | 0.847 | 0.764 | 0.833 | 0.817 | 0.899 | 0.71 | 0.877 | 0.971 | 0.816 | 0.546 | 1 | 0.809 | 0.589 | 0.956 | 0.649 | 1 | 0.445 | 0.374 | 1 | 0.33 |
| COc1cccc(OCCCN)c1-c1cc(Nc2cnc(C#N)cn2)n[nH]1 [Prexasertib] + Cc1cc2ncnn2cc1Nc1ncc2c(n1)n(C1CCOCC1)c(=O)n2C [AZD7648] (first compound max 1 µM, 7x7, partner max 10 µM) | 0.845 | 0.788 | 0.823 | 0.772 | 0.866 | 0.685 | 0.858 | 0.971 | 0.819 | 0.462 | 1 | 0.836 | 0.501 | 0.97 | 0.706 | 1 | 0.386 | 0.512 | 1 | 0.321 |
| COc1cccc(OCCCN)c1-c1cc(Nc2cnc(C#N)cn2)n[nH]1 [Prexasertib] + O=C(c1cc(Cc2n[nH]c(=O)c3ccccc23)ccc1F)N1CCN(C(=O)C2CC2)CC1 [Olaparib] (first compound max 1 µM, 7x7, partner max 10 µM) | 0.847 | 0.77 | 0.609 | 0.706 | 0.785 | 0.685 | 0.931 | 0.896 | 0.837 | 0.48 | 1 | 0.812 | 0.319 | 0.982 | 0.66 | 1 | 0.404 | 0.479 | 1 | 0.312 |
